Entries after “also recorded” stand apart in the source; their conditions may differ. Where two headings read alike, the source gives them in different places.
Experiments:
[1] = system: Infantile spasms (IS) patients; settings: cited from earlier work
[2] = cited from earlier work; for adverse events (AEs) associated with treatment: IS treatment, refs [32], [1]
[3] = system: rat triple hit model of IS; assay: Rat triple hit model of IS (DOX, LPS, PCPA): spasm frequency; format: in vivo, Sprague Dawley rats; settings: for spasms/hr / spasms/hour: P5-P7, scored on P7; for spasms/hour: vehicle/milk only mean 4.5 (SD 2.3)
From the text: Various animal models of IS have been created as tools to test efficacy of various interventions. One such example is a rat triple hit model developed by Scantlebury and co-authors. This model was developed “based on evidence that structural or functional abnormalities in cortical or subcortical structures may be necessary to produce IS.” [11]. The model uses three lesions to induce infantile spasms. The lesions include doxorubicin (DOX), lipopolysaccharide (LPS) and p-chlorophenylalanine (PCPA). DOX is an inhibitor of topo isomerase 2 that results in diffuse brain damage involving the forebrain and brainstem when injected intraventricularly. LPS can stimulate the release of inflammatory cytokines in various cell types, leading to an acute inflammatory response. Intracerebral injection of LPS in rat pups activates inflammatory cascades resulting in hypomyelination, white matter rarefaction and necrosis. PCPA depletes serotonin by inhibiting the enzyme tryptophan hydroxylase.
In accordance with embodiments of the disclosure, tricaprilin was tested for its ability to reduce spasm frequency in this triple hit model. These studies were done using timed pregnant Sprague Dawley rats. Animals were maintained in a 12 hr light/dark cycle and had free access to food and water. The day of birth was considered as P0. Animal care and use conformed to institutional policy and guidelines of the American Association for the Accreditation of Laboratory Animal Care. All procedures and experiments were performed in accordance with the National Institute of Health Guide for the Care and Use of Laboratory Animals.
At postnatal day (P) 3 DOX (5 μg/2.5 μl) and LPS (3 μg/1.5 μl) were given intracerebrally and at P5 PCPA is given intraperitoneally (i.p.) (200 mg/kg). Intracerebral infusions of DOX and LPS were done stereotaxically under isoflurane anesthesia. Pups were positioned in a stereotaxic frame for neonatal rat surgery (Benchmark Angle One, MyNeurolab.com, St Louis Mo.). DOX was injected into the right lateral ventricle followed by LPS into the right parietal cortex. Pups were individually placed in beakers warmed in a water bath and filled with bedding (31-33° C.) and fed via a cheek cannula. Spasms begin at day P4 and continue to P13.
Tricaprilin was administered either by oral gavage (administered twice a day), or steadily in milk via the cheek cannula, from P5-P7. […] For gavage, tricaprilin was administered at 5 ml/kg/day and 10 ml/kg/day. When mixed with milk, tricaprilin was administered at 5, 10 and 30 ml/kg/day. Each group comprised 5 animals. Spasms were recorded and scored on P7, urine ketones collected on P7 at 6 and 12 hours after gavage and same timepoints for milk fed pups. The behaviors of the pups were monitored using a video camera for 2 hours twice daily from P4 (first post-operative day) until P20.
The frequency of spasms varied by concentration of tricaprilin used. […] With reference to FIG. 2B, when tricaprilin was mixed with milk at 5 ml/kg/day spasms/hr were 3.1 (SD 1.7, pvalue=0.300), at 10 ml/kg/day 3.0 (SD 0.8, pvalue=0.139), and at 30 ml/kg/day 1.75 (SD 1.7, pvalue 0.079).

## C[C@]12C=CC(=O)C=C1CC[C@@H]1[C@@H]2C(=O)C[C@@]2(C)[C@H]1CC[C@]2(O)C(=O)CO [Prednisone]
[1]; 2 mg/kg/day, N 12, ref [19]
  % of patient spasms stopped: 33%

## C[C@]12C=CC(=O)C=C1CC[C@@H]1[C@@H]2[C@@H](O)C[C@@]2(C)[C@H]1CC[C@]2(O)C(=O)CO [Prednisolone]
[1]; 40-60 mg/day, N 30, ref [17]
  % of patient spasms stopped: 70%

## C=CC(N)CCC(=O)O (stereo not drawn) [VGB, Vigabatrin]
[1]; 18-36 mg/kg/day, N 75, ref [18]
  % of patient spasms stopped: 11%
[1]; 100-148 mg/kg/day, N 67, ref [18]
  % of patient spasms stopped: 36%
[1]; 100-150 mg/kg/day, N 52, ref [17]
  % of patient spasms stopped: 54%
[2]
  adverse events (AEs) associated with treatment: sedation, irritability, insomnia and hypotonia
[2]; persist even with discontinuation of the drug, ref [1]
  visual field defects: serious visual field defects that are permanent

## Adrenocorticotropic hormone (SYSMEHFRWGKPVGKKRRPVKVYPNGAEDESAEAFPLEF; Corticotropin; UniProt P01189 138-176, looked up) [ACTH, first line hormonal therapy for IS]
[1]; 20-20 IU/day, N 24, ref [16]
  % of patient spasms stopped: 58%
[1]; 150 IU/m2/day divided B.I.D., N 15, ref [13]
  % of patient spasms stopped: 93%
[1]; 150 IU/m2/day, N 26, ref Hrachovy, 1994 #681}
  % of patient spasms stopped: 50%
[1]; high-dose natural ACTH 150 IU/m2/day given twice daily, 2 weeks then taper, Baram et al. [13]
  subjects responded with both clinical cessation of spasms and abolition of hypsarrhythmia on EEG: 87%
[2]
  adverse events (AEs) associated with treatment: hypertension, immune suppression, infection, electrolyte imbalances, GI disturbances, ocular opacities, hypertrophic cardiomyopathy, cerebral atrophy and growth impairment

## CCCCCCCC(=O)OCC(COC(=O)CCCCCCC)OC(=O)CCCCCCC [tricaprilin]
[3]; mixed with milk 5 ml/kg/day, SD 1.7, pvalue=0.300
  spasms/hr: 3.1 spasms/hr
[3]; mixed with milk 10 ml/kg/day, SD 0.8, pvalue=0.139
  spasms/hr: 3.0 spasms/hr
[3]; mixed with milk 30 ml/kg/day, SD 1.7, pvalue 0.079
  spasms/hr: 1.75 spasms/hr
[3]; oral gavage 5 ml/kg/day, SD 1.6, pvalue 0.155
  spasms/hour: 2.3 spasms/hour
[3]; oral gavage 10 ml/kg, SD 0.9, pvalue=0.036
  spasms/hour: 1.4 spasms/hour
[3]; oral gavage and feeding in milk
  effect on spasms compared to vehicle (in words): reduction in spasms/hr; also recorded: reduces spasms
